Data taken from paper PMC12787000 (Molecules, 2025).
Blank lines part the entries; values can stand above or below the molecule they belong to.

What was measured:
A375 cells [1] = conditions: A375, 24 h, compared to untreated control
A375 cells [2] = assay: MTT cell viability assay, A375; assay type: cell-based; conditions: 72 h; for IC50: Homo sapiens, A-375, A375, MTT
Protocol: (§1) A375, MRC-5, and HaCaT cell lines were obtained from the American Type Culture Collection (ATCC). 518A2 cell line was kindly provided by Dr. […]ć. All cell lines were cultured in RPMI 1640 medium supplemented with 2 g/L glucose, 10% fetal bovine serum (FBS), and antibiotics. […] Cell viability was assessed using the MTT assay (Sigma Aldrich, #M5655). […] After 72 h of incubation, absorbance was measured at 570 nm using a Multiskan SkyHigh microplate reader (Thermo Fisher Scientific, Helsinki, Finland). Values were corrected by subtracting the absorbance measured in wells containing cell-free medium with tested compounds.

518A2 cells = assay: MTT cell viability assay, 518A2; assay type: cell-based; conditions: Homo sapiens; 518A2, MTT, 72 h
Protocol: as §1

A375R cells [3] = assay: MTT cell viability assay, vemurafenib-resistant A375R; assay type: cell-based; conditions: for IC50: A375R, MTT, 72 h
Protocol: as §1

[4] = tested on: HaCaT (human keratinocytes); assay: MTT cell viability assay, HaCaT; assay type: cell-based; conditions: 72 h
Protocol: as §1

[5] = tested on: MRC-5 (fetal fibroblasts); assay: MTT cell viability assay, MRC-5; assay type: cell-based; conditions: Homo sapiens, MRC5; MRC-5, MTT, 72 h
Protocol: as §1

A375 cells [6] = assay: Cellular uptake and subcellular distribution by LC-MS/MS; assay type: cell-based; conditions: A375, 25 μM, 24 h; for Compound accumulation normalized to telmisartan, Chromatin Bound: chromatin-bound nuclear fraction; for Compound accumulation normalized to telmisartan, Cytoplasm: cytoplasmic fraction; for Compound accumulation normalized to telmisartan, Cytoskeleton: cytoskeletal fraction; for Compound cell accumulation normalized to telmisartan, Whole Lysate: μmol compound per μg cell protein normalized to telmisartan
Protocol: Cells were then trypsinized, washed with PBS and pelleted. For whole cell lysates, cell pellet was dissolved in RIPA buffer on ice. Fractions and whole cell lysates were stored at -80 °C until use. Protein concentration of lysates was determined with Pierce BCA Protein assay kit (Thermo Fisher #23225), and cell accumulation was calculated as μmol of compound per μg of cell protein and normalized to telmisartan. Concentrations of telmisartan and its derivatives were determined using liquid chromatography-tandem mass spectrometry (LC-MS/MS) method in positive HESI mode. The analysis was performed on UHPLC chromatograph […] (Thermo Fisher Scientific Inc., Madison, WI, USA), coupled to a triple quadrupole mass spectrometer TSQ Quantum Access MAX (Thermo Fisher Scientific Inc., Madison, WI, USA) with heated electrospray ionization (HESI) interface. The column was Zorbax Extend C18 (150 mm × 4.6 mm, 5 μm particle size). […] Experiment was repeated twice.

AT1R = target: T1, AT1R (Homo sapiens, UniProt P30556); assay: Angiotensin II-induced Ca2+ release, Fluo-4 AM live-cell imaging; assay type: cell-based; conditions: 2 min; for Effect on AngII-induced Ca2+ increase (combination treatment): A375, 25 μM compound + 1 μM AngII
T1 construct: endogenous in cells; host or cells: A375 melanoma cells (ATCC)
T1 sequence (P30556 1-359): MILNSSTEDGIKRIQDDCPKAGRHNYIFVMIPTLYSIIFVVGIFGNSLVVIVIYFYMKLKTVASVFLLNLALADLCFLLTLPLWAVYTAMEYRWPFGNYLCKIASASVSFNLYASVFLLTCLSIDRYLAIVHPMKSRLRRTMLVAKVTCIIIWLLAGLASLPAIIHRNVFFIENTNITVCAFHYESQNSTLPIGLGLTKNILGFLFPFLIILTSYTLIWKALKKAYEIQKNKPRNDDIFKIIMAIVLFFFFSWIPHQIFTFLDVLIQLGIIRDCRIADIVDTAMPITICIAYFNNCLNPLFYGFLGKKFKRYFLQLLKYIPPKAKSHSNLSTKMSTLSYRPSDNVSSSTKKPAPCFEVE
Protocol: Fluo-4 AM calcium indicator dye (F14201, Molecular Probes, Eugene, OR, USA) was used to observe Ca^2+ dynamics upon treatment, per manufacturer’s instructions. Briefly, 5000 A375 cells/well were seeded in 96-well optical bottom black cell culture plates (165305, Thermo Scientific). Fluo-4 AM stock solution in DMSO was mixed with equal volume of 20% Pluronic F-127 to assist in dispersion of AM esters before dilution into the loading medium. Twenty-four hours after seeding medium was removed, and cells were washed with HBBS without calcium and magnesium. Cells were stained in HBSS medium with 1.25 μM Fluo-4-AM for 30 min at 37 °C. After incubation, cells were washed and incubated in complete medium (10%FBS RPMI) to allow de-esterification for 30 min and then treated with 1 μM human Angiotensin II (A9525, Sigma Aldrich), 50 μM telmisartan, compounds 1, 3, and 8, or the combinations. Images were taken before addition of the treatment (0 min) and after 2 min of treatment on Zeiss PALM MicroBeam Axio Observer Z1 microscope (Carl Zeiss MicroImaging GmbH, Oberkochen, Germany) with Zeiss LD Plan-Neofluar 20×/0.4 Korr, ∞/0–1.5 mm lens and AxioVision SE64 Rel.4.9.1 software. Experiment was repeated three times. Integrated density of Fluo-4 fluorescence at 2 min of exposure to treatment was calculated with Image J, and normalized to the baseline fluorescence at time 0, in at least two random fields for each condition. Conditions were compared with one-way ANOVA and Tukey’s multiple comparisons test. p < 0.05 was considered statistically significant.

A375R cells [7] = assay: Cell cycle distribution (PI, flow cytometry), A375R; assay type: cell-based; conditions: 25 µM, 72 h
Protocol: (§2) A375 and A375R cells were seeded in 6-well plates at a density of 150,000 cells per well. On the following day, the cells were treated with 25 µM concentrations of compounds 1, 3, and 8, as well as telmisartan. After 72 h of incubation, the cells were harvested using trypsin, washed with phosphate-buffered saline (PBS), fixed in ethanol, and stored at −20 °C until analysis. Ethanol-fixed cells were treated with RNase A (1 mg/mL) and stained with propidium iodide (PI; 400 µg/mL). A total of 20,000 events were recorded per sample. Quantitative analysis of the cell cycle phase distribution was performed by flow cytometry using a FACSCalibur flow cytometer (Becton Dickinson, San Jose, CA, USA) and BD CellQuest Pro Version 5.2.1 software. Experiment was performed three times. Cells under treatment were compared to controls for each cell phase separately with one-way ANOVA and Dunnett’s multiple comparison tests. p < 0.05 was considered statistically significant.

[8] = parameters: method as in PMID 11014323; conditions: males, oral intake of 320 mg; cited from earlier work
A375 cells [9] = assay: Cell cycle distribution (PI, flow cytometry), A375; assay type: cell-based; conditions: A375, 25 µM, 72 h
Protocol: as §2

A375 cells [10] = assay: Mitochondrial morphology staining (MitoTracker Green FM); assay type: cell-based; conditions: A375, 25 μM, 24 h
Protocol: For imaging of the mitochondrial morphology in live cells, A375 cells seeded in 96-well optical bottom plates, as above, were treated for 24 h with 25 μM telmisartan, compound 1, 3, or 8. Treatment was washed away, and cells were stained with 500 nM MitoTracker Green FM (#9074, Cell signaling Technology, Danvers, MA, USA) in RPMI without serum for 30 min at 37 °C. Cells were imaged on Zeiss PALM MicroBeam Axio Observer Z1 microscope (Carl Zeiss MicroImaging GmbH, Oberkochen, Germany) with Zeiss LD Plan-Neofluar 20×/0.4 Korr, ∞/0–1.5 mm lens and AxioVision software. Mitochondrial shape was quantified in images from two biological experimental repeats, in three random fields for each condition, using Image J Analyze Particles function. Images were first processed to 8-bit binary, and circularity and aspect ratio (major axis/minor axis) were calculated and plotted with Prism 9 (GraphPad Software, LLC, Boston, MA, USA). Treatments were compared with untreated control using one-way ANOVA and Dunnett’s multiple comparisons test. p < 0.05 was considered statistically significant.

Structure (SMILES): N#CC(C#N)=NNc1ccc(OC(F)(F)F)cc1 [FCCP, carbonyl cyanide 4-(trifluoromethoxy) phenylhydrazone]
- Ratio of red JC-1 aggregates to green JC-1 monomers (A375 cells [1]): lowest red/green ratio

Structure (SMILES): CCCc1nc2c(C)cc(-c3nc4ccccc4n3C)cc2n1Cc1ccc(-c2ccccc2C(=O)NC(Cc2cnc[nH]2)C(=O)O)cc1 (stereo not drawn) [compound 2, 2-{[4′-(1,7′-dimethyl-2′-propyl-1H-[2,5′]bibenzoimidazolyl-3′-ylmethyl)-biphenyl-2-carbonyl]-amino}-3-(3H-imidazol-4-yl)-propionic acid]
- IC50 (A375 cells [2]): > 150 µM
- IC50 (518A2 cells): > 150 µM

Structure (SMILES): CCCc1nc2c(C)cc(-c3nc4ccccc4n3C)cc2n1Cc1ccc(-c2ccccc2C(=O)NC(C(=O)O)C(C)CC)cc1 (stereo not drawn) [compound 4, 2-{[4′-(1,7′-dimethyl-2′-propyl-1H-[2,5′]bibenzoimidazolyl-3′-ylmethyl)-biphenyl-2-carbonyl]-amino}-3-methyl-pentanoic acid]
- IC50 (A375 cells [2]): 43 ± 6.02 µM
- IC50 (518A2 cells): 49 ± 3.17 µM

Structure (SMILES): CCCc1nc2c(C)cc(-c3nc4ccccc4n3C)cc2n1Cc1ccc(-c2ccccc2C(=O)NCC(=O)O)cc1 [compound 5, {[4′-(1,7′-dimethyl-2′-propyl-1H-[2,5′]bibenzoimidazolyl-3′-ylmethyl)-biphenyl-2-carbonyl]-amino}-acetic acid]
- IC50 (A375 cells [2]): 86.22 ± 0.64 µM
- IC50 (518A2 cells): 81.5 ± 6.28 µM

Structure (SMILES): CCCc1nc2c(C)cc(-c3nc4ccccc4n3C)cc2n1Cc1ccc(-c2ccccc2C(=O)NCCCC(=O)O)cc1 [compound 6, 4-{[4′-(1,7′-dimethyl-2′-propyl-1H-[2,5′]bibenzoimidazolyl-3′-ylmethyl)-biphenyl-2-carbonyl]-amino}-butyric acid]
- IC50 (A375 cells [2]): 116 ± 6.94 µM
- IC50 (518A2 cells): 89.2 ± 7.37 µM

The next lines start with results.

- IC50 (A375 cells [2]): 59.1 ± 4.17 µM
- IC50 (A375R cells [3]): 29.2 ± 3.88 µM
- Compound accumulation normalized to telmisartan, Chromatin Bound (A375 cells [6]): 1.00
- Compound accumulation normalized to telmisartan, Cytoplasm (A375 cells [6]): 1.00
- Compound accumulation normalized to telmisartan, Cytoskeleton (A375 cells [6]): 1.00
- Accumulation in the membrane fraction (A375 cells [6]; membrane fraction): 0.197 µmol/L
- Compound accumulation normalized to telmisartan, Membrane (A375 cells [6]; membrane fraction): 1.00
- Compound cell accumulation normalized to telmisartan, Whole Lysate (A375 cells [6]): 1.00
- Effect on AngII-induced Ca2+ increase (combination treatment) (AT1R): prevented AngII-induced Ca^2+ increase
Structure (SMILES): CCCc1nc2c(C)cc(-c3nc4ccccc4n3C)cc2n1Cc1ccc(-c2ccccc2C(=O)O)cc1 [Telmisartan, reference compound]
- IC50 (518A2 cells): 70.2 ± 3.83 µM
- Selectivity (A375R cells [3]; A375R versus normal cell lines (HaCaT, MRC-5), from IC50 values): > 2.40
- IC50 [4]: 148 ± 2.89 µM
- IC50 [5]: 70.4 ± 5.61 µM
- Cell cycle distribution (A375R cells [7]): cell cycle profile comparable to that of the untreated control cells
- Maximum steady-state plasma level [8]: around 20 μM

- IC50 (A375 cells [2]): 27.2 ± 0.63 µM
- IC50 (A375R cells [3]): 19.7 ± 8.87 µM
- Compound accumulation normalized to telmisartan, Chromatin Bound (A375 cells [6]): 36.22
- Compound accumulation normalized to telmisartan, Cytoplasm (A375 cells [6]): 17.80
- Compound accumulation normalized to telmisartan, Cytoskeleton (A375 cells [6]): 21.14
- Compound accumulation normalized to telmisartan, Membrane (A375 cells [6]; membrane fraction): 106.59
- Compound cell accumulation normalized to telmisartan, Whole Lysate (A375 cells [6]): 12.08
Structure (SMILES): CCCc1nc2c(C)cc(-c3nc4ccccc4n3C)cc2n1Cc1ccc(-c2ccccc2C(=O)NC(Cc2cn(C)c3ccccc23)C(=O)O)cc1 (stereo not drawn) [compound 1, 2-{[4′-(1,7′-dimethyl-2′-propyl-1H-[2,5′]bibenzoimidazolyl-3′-ylmethyl)-biphenyl-2-carbonyl]-amino}-3-(1-methyl-1H-indol-3-yl)-propionic acid]
- Effect on cell viability at single concentration (A375 cells [2]; A375, 25 μM, MTT): significant reductions in cell viability
- IC50 (518A2 cells): 23.5 ± 2.08 µM
- IC50 [4]: 43.9 ± 3.42 µM
- IC50 [5]: 26.7 ± 2.48 µM
- Effect on AngII-induced Ca2+ increase (combination treatment) (AT1R): did not prevent AngII-induced Ca^2+ increase
- Effect of compound alone on baseline Ca2+ signaling (AT1R; A375, compound alone): no significant changes in the baseline Ca^2+ signaling
- Cell cycle distribution (A375 cells [9]): increased accumulation of cells in the subG1 phase, albeit not statistically significant
- Cell cycle distribution (A375R cells [7]): cell accumulation in the G0/G1 phase
- Mitochondrial network morphology (A375 cells [10]): dramatic fission and clumping of mitochondria

- IC50 (A375 cells [2]): 43.2 ± 3.55 µM
Structure (SMILES): CCCc1nc2c(C)cc(-c3nc4ccccc4n3C)cc2n1Cc1ccc(-c2ccccc2C(=O)NC(CC(C)C)C(=O)O)cc1 (stereo not drawn) [compound 7, 2-{[4′-(1,7′-dimethyl-2′-propyl-1H-[2,5′]bibenzoimidazolyl-3′-ylmethyl)-biphenyl-2-carbonyl]-amino}-4-methyl-pentanoic acid]
- IC50 (518A2 cells): 39.7 ± 2.4 µM
